Source: PubChem BioAssay AID489002 (NMMLSC, 2010)
Active and inactive are the calls of the source.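 How the source made its calls: active means combined score above 52 from an acceptable curve fit, favoring EC50 below 10 µM and curve height over 20%; inactive means the rest.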

Biological target: ATP-dependent translocase ABCB1 (Homo sapiens) (UniProt P08183)
Experiment: P-gp JC-1 efflux blockers potency – Jurkat-DNR cells, flow cytometry, follow-up, dose response (AID 489002)
Conditions: for inhibition: at 50 µM (top of the series)

ATP-dependent translocase ABCB1 (Homo sapiens), sequence (P08183 whole entry, looked up): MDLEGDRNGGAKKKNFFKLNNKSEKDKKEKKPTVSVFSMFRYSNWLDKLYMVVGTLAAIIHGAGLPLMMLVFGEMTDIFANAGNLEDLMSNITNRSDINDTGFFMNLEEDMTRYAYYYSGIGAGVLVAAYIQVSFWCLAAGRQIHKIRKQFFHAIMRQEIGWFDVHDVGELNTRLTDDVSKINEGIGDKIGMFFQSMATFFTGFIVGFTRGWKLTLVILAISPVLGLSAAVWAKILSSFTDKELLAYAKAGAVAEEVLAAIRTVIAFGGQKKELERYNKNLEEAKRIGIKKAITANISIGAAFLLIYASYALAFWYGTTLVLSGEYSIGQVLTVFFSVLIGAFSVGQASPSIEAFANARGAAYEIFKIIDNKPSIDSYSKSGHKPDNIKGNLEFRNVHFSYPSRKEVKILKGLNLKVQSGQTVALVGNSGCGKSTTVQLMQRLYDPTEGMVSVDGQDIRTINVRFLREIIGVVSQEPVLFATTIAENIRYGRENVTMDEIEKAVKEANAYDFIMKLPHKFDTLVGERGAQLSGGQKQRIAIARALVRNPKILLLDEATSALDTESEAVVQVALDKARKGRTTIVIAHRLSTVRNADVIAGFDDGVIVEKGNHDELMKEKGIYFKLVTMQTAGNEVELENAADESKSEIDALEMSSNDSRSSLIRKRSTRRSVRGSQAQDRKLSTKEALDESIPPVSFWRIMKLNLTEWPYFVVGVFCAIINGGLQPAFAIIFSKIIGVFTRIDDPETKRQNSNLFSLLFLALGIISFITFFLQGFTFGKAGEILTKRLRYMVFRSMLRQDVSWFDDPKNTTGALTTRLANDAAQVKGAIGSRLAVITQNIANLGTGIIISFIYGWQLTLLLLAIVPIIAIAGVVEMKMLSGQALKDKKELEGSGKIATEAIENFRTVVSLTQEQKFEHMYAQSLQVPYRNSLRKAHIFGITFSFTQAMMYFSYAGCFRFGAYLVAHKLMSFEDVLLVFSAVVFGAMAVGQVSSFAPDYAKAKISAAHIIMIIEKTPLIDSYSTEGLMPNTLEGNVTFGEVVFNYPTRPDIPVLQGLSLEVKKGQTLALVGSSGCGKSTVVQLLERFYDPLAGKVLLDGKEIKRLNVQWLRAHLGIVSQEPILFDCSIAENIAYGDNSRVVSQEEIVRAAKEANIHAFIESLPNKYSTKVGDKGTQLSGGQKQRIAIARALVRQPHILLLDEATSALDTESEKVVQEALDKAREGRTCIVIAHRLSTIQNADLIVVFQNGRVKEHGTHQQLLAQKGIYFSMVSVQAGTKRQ

Cc1ccc(-c2cc3nc(-c4ccco4)cc(N4CCN(C(=O)c5ccoc5)CC4)n3n2)cc1
EC50: inactive

O=C(c1ccco1)N1CCN(c2cc(-c3ccco3)nc3cc(-c4ccccc4)nn23)CC1
EC50: 8.53 µM

COc1ccc(-c2cc3nc(-c4ccco4)cc(N4CCN(C(=O)c5ccoc5)CC4)n3n2)cc1
EC50: 4.86 µM

COc1ccccc1-c1c(C)nn2c(N3CCN(C(=O)c4ccco4)CC3)cc(C)nc12
inhibition: inactive

COc1cccc(-c2cc3nc(C)c(C)c(N4CCN(Cc5ccco5)CC4)n3n2)c1
inhibition: inactive

Cc1nc2cc(-c3cccc(F)c3)nn2c(N2CCN(C(=O)c3ccco3)CC2)c1C
inhibition: inactive

O=C(c1ccoc1)N1CCN(c2cc(-c3ccco3)nc3cc(-c4cccc(Cl)c4)nn23)CC1
EC50: inactive

O=C(c1ccco1)N1CCN(c2cc(-c3ccccc3)nc3ncnn23)CC1
inhibition: inactive

COc1ccc(-c2cc3nc(C)c(C)c(N4CCN(C(=O)c5ccoc5)CC4)n3n2)cc1
EC50: 4.08 µM

COc1cccc(-c2cc3nc(-c4ccccc4)cc(N4CCN(C(=O)c5ccoc5)CC4)n3n2)c1
EC50: 7.07 µM

O=C(c1ccoc1)N1CCN(c2cc(-c3ccco3)nc3cc(-c4ccccc4)nn23)CC1
EC50: 4.6 µM

O=C(c1ccoc1)N1CCN(c2cc(-c3cccc(F)c3)nc3cc(-c4cccc(Cl)c4)nn23)CC1
EC50: 6.45 µM

CC1CN(C(=O)OC(C)(C)C)CCN1c1cc(-c2ccco2)nc2cc(-c3ccccc3)nn12 (stereo not given)
EC50: inactive

Cc1nc2cc(-c3ccc(Br)cc3)nn2c(N2CCN(C(=O)c3ccoc3)CC2)c1C
EC50: inactive

O=C(c1ccoc1)N1CCN(c2cc(-c3ccco3)nc3cc(-c4ccco4)nn23)CC1
EC50: 2.03 µM

COc1ccc(-c2cc3nc(C)c(C)c(N4CCN(C(=O)c5ccco5)CC4)n3n2)cc1
EC50: 4.78 µM

O=C(c1ccoc1)N1CCN(c2cc(-c3ccccc3F)nc3cc(-c4ccccc4)nn23)CC1
EC50: 10.5 µM

COc1cccc(-c2cc3nc(C)c(C)c(N4CCN(C(=O)c5ccoc5)CC4)n3n2)c1
EC50: 12.8 µM

O=C(c1ccsc1)N1CCN(c2cc(-c3ccco3)nc3cc(-c4ccccc4)nn23)CC1
EC50: 5.69 µM

Cc1c(-c2ccco2)nc2cc(-c3ccccc3)nn2c1N1CCN(C(=O)c2ccoc2)CC1
EC50: 6.48 µM

O=C(C1CCCO1)N1CCN(c2c3c(nc4cc(-c5cccc(F)c5)nn24)CCCC3)CC1 (stereo not given)
EC50: inactive

CC(C)(C)c1cc(N2CCN(C(=O)c3ccoc3)CC2)n2nc(-c3ccccc3)cc2n1
EC50: inactive

CC(=O)N1CCN(c2cc(-c3ccco3)nc3cc(-c4ccccc4)nn23)CC1
EC50: 5.44 µM

COc1cccc(-c2cc3nc(-c4ccccc4)c(C)c(N4CCN(C(=O)c5ccoc5)CC4)n3n2)c1
EC50: 4.77 µM

Cc1ccc(-c2cc(N3CCN(C(=O)c4ccoc4)CC3)n3nc(-c4ccccc4)cc3n2)o1
EC50: inactive

O=C(c1ccoc1)N1CCN(c2cc(-c3ccco3)nc3cc(-c4ccc(Cl)cc4)nn23)CC1
EC50: inactive

COc1cccc(-c2cc3nc(C)c(C)c(N4CCN(C(=O)c5ccco5)CC4)n3n2)c1
EC50: 11.8 µM

CN(CCCN(C)c1cc(-c2ccco2)nc2cc(-c3ccccc3)nn12)C(=O)c1ccoc1
EC50: inactive

Cc1cc(N2CCN(C(=O)C3CCCO3)CC2)n2nc(-c3cccc(F)c3)cc2n1 (stereo not given)
EC50: inactive

Cc1occc1C(=O)N1CCN(c2cc(-c3ccco3)nc3cc(-c4ccccc4)nn23)CC1
EC50: 11.8 µM

O=C(c1coc2ccccc12)N1CCN(c2cc(-c3ccco3)nc3cc(-c4ccccc4)nn23)CC1
EC50: inactive

O=C(c1ccoc1)N1CCN(c2cc(-c3ccco3)nc3cc(-c4cccc(-c5ccco5)c4)nn23)CC1
EC50: 5.15 µM

COc1cccc(-c2cc3nc(C)cc(N4CCN(C(=O)c5ccoc5)CC4)n3n2)c1
EC50: inactive

O=C(c1ccoc1)N1CCCN(c2cc(-c3ccco3)nc3cc(-c4ccccc4)nn23)C1
EC50: inactive

O=C(c1ccoc1)N1CCN(c2cc(-c3cccs3)nc3cc(-c4ccccc4)nn23)CC1
EC50: 8.33 µM

COc1ccc(-c2[nH]nc3nc(N4CCN(C(=O)c5ccoc5)CC4)cc(C(F)(F)F)c23)cc1
EC50: inactive

COc1cccc(-c2cc(N3CCN(C(=O)c4ccoc4)CC3)n3nc(-c4cccc(OC)c4)cc3n2)c1
EC50: 3.54 µM

COc1cccc(-c2cc3nc(-c4cccc(C#N)c4)cc(N4CCN(C(=O)c5ccoc5)CC4)n3n2)c1
EC50: 2.34 µM

COc1ccccc1-c1cc2nc(-c3ccco3)cc(N3CCN(C(=O)c4ccoc4)CC3)n2n1
EC50: 10.3 µM

O=C(c1ccco1)N1CCN(c2c3c(nc4cc(-c5ccc(F)cc5)nn24)CCC3)CC1
EC50: 1.85 µM

c1ccc(CN2CCN(c3cc(-c4ccco4)nc4cc(-c5ccccc5)nn34)CC2)cc1
EC50: 3.84 µM

c1ccc(-c2cc3nc(-c4ccco4)cc(N4CCNCC4)n3n2)cc1
EC50: inactive

COC(=O)c1cccc(-c2cc(N3CCN(C(=O)c4ccoc4)CC3)n3nc(-c4cccc(OC)c4)cc3n2)c1
EC50: 2.97 µM

CC(=O)N1CCN(c2cc(-c3ccco3)nc3cc(-c4cccc(Cl)c4)nn23)CC1
EC50: 3.97 µM

Cc1nc2cc(-c3ccc4c(c3)OCO4)nn2c(N2CCN(C(=O)c3ccoc3)CC2)c1C
EC50: 1.93 µM

COc1ccc(-c2cc(N3CCN(C(=O)c4ccoc4)CC3)n3nc(-c4ccccc4)cc3n2)cc1
EC50: inactive

O=C1CN(c2cc(-c3ccco3)nc3cc(-c4ccccc4)nn23)CCN1c1ccccc1
EC50: 6.61 µM

CC(C)(C)OC(=O)N1CCN(c2cc(-c3ccco3)nc3cc(-c4ccccc4)nn23)CC1
EC50: inactive

O=C(c1ccoc1)N1CCN(c2cc(-c3cccc(F)c3)nc3cc(-c4ccccc4)nn23)CC1
EC50: inactive

Cc1cccc(-c2cc3nc(-c4ccco4)cc(N4CCN(C(=O)c5ccoc5)CC4)n3n2)c1
EC50: inactive

COc1cc(OC)cc(-c2cc3nc(C)c(C)c(N4CCN(C(=O)c5ccoc5)CC4)n3n2)c1
EC50: 1.84 µM

CC(=O)N1CCN(c2c(C)c(C)nc3cc(-c4ccc(F)cc4)nn23)CC1
inhibition: inactive

O=C(c1ccoc1)N1CCN(c2cc(-c3ccoc3)nc3cc(-c4ccccc4)nn23)CC1
EC50: inactive

CNCCCN(C)c1cc(-c2ccco2)nc2cc(-c3ccccc3)nn12
EC50: inactive

Cc1nn2c(N3CCN(C(=O)c4ccco4)CC3)cc(C(C)(C)C)nc2c1-c1ccc(Cl)cc1
inhibition: inactive

O=C(c1ccoc1)N1CCN(c2cc(-c3ccccc3)nc3cc(-c4ccncc4)nn23)CC1
EC50: 9.92 µM

O=C(c1ccoc1)N1CCN(c2cc(-c3ccco3)nc3cc(-c4cccs4)nn23)CC1
EC50: 9.8 µM

Cc1nc2cc(-c3ccccc3)nn2c(N2CCN(C(=O)c3ccoc3)CC2)c1C
EC50: 2.19 µM

COc1cccc(-c2cc3nc(C)c(C(C)C)c(N4CCN(C(=O)c5ccoc5)CC4)n3n2)c1
EC50: 10.2 µM

Cc1cc(C(=O)N2CCN(c3cc(-c4ccco4)nc4cc(-c5ccccc5)nn34)CC2)c(C)o1
EC50: 8.68 µM

Cc1nc2cc(-c3ccncc3)nn2c(N2CCN(C(=O)c3ccoc3)CC2)c1C
EC50: inactive

COc1ccc(-c2cc3nc(-c4ccccc4)cc(N4CCN(C(=O)c5ccoc5)CC4)n3n2)cc1
EC50: 2.05 µM

O=C(OCc1ccccc1)N1CCN(c2cc(-c3ccco3)nc3cc(-c4ccccc4)nn23)CC1
EC50: 3.03 µM

COc1ccccc1-c1cc(N2CCN(C(=O)c3ccoc3)CC2)n2nc(-c3ccccc3)cc2n1
EC50: 15.3 µM

Cc1nc2cc(-c3cccc(Cl)c3)nn2c(N2CCN(C(=O)c3ccoc3)CC2)c1C
EC50: inactive
